Drawing on patent US8518952B2, “6 substituted 2-heterocyclylamino pyrazine compounds as CHK-1 inhibitors” (Pfizer Inc., priority 2008, dated 2013), this text covers Ki and EC50 for 13 compounds.

The target of assay [1] is T1, CHK1 (kinase domain) (Homo sapiens, UniProt O14757).
T1 construct: a solution containing 1 nM of CHK1 (kinase domain)
T1 sequence (O14757 9-265 limits assumed): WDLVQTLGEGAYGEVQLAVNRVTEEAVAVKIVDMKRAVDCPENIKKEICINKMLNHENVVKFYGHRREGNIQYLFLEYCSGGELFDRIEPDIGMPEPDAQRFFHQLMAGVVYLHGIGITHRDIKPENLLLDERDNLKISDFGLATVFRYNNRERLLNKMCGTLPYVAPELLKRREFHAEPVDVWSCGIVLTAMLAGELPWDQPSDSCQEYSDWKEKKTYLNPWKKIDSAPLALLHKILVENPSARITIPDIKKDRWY
Nature of the assay: CHK1 Ki determination, spectrophotometric coupled (pyruvate kinase/lactate dehydrogenase) assay. It counts as biochemical. The following applies: CHK-1 kinase domain; 150 uM ATP, 125 uM Syntide 2. Summed up:
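The CHK1 kinase domain was pre-incubated with compound for 15 min, and the reaction was started with 125 uM Syntide 2 and 150 uM ATP. ADP formation was coupled through pyruvate kinase/lactate dehydrogenase to NADH oxidation, read as the A340 decrease. Kiapp was fitted with a tight-binding equation that accounts for enzyme concentration and ATP Km; some entries are % inhibition.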

Assay [2] deals with Mia Paca-2 cells. Nature of the assay: Histone H3 (Ser10) phosphorylation ELISA, abrogation of camptothecin-induced G2 arrest (CHK-1 cellular assay). The class given is cell-based. The following applies: Homo sapiens, camptothecin 8 hrs, then compound with nocodozole 16 hours. On the procedure: The Histone H3 phosphorylation ELISA assay detects cells entering mitosis and represents the primary in vitro cell-based assay used to measure the cellular potency of compounds in abrogating the G2 check point induced by DNA damage in HeLa cells or MiaPaCa cells. The candidate substances were assayed for potency in their ability to inhibit camptothecin-induced G2 arrest, as measured by an increase in Histone H3 phosphorylation on Ser10, a marker of entry into mitosis.
The PathScan Phospho-Histone H3 (Ser10) Sandwich ELISA kit was used (Cell Signaling, #7155) and the assay was performed according to manufacturer recommendations. Tissue culture plates were seeded with HeLa cells or MiaPaCa Cells and allowed to attach overnight. The cells were then treated with camptothecin to induce DNA damage for 8 hrs. Candidate substances or diluent were then added in the presence of nocodozole for 16 hours. Cells were then lysed with buffer from Assay Designs (#80-1114) supplemented with protease inhibitors and frozen overnight. The fresh whole cell lysates were then thawed and added to the ELISA plate with shaking for 3 hours. Between all subsequent steps plates were washed 4 times with PBST. Biotinylated phospho Histone H3 (ser10) detection antibody was added for 1 hour, followed by addition of horseradish peroxidase-linked streptavidin secondary antibody for 1 hour. Color development of the antibody was performed with addition of TMB substrate and incubation for 2 minutes on a plate shaker. Stop solution was added and plates were read with absorbance at 450 nm on a spectrophotometer. EC50 values were calculated by sigmoid curve fitting using a four-parameter analysis.
Under the “Ki” column, data entries in the format of “%” are percent inhibition data where no Ki data is available. Data entry under the “EC50” column with an * are data obtained using Mia Paca-2 cells rather than HeLa cells. Data is not available where noted as n/a.

Setting [3] is: Mia Paca-2 cells (entries marked *).
Where [4] appears, read: MIA PaCa-2, Mia Paca-2 cells (entries marked *).

pEC50, pKi: −log10 of the molar value. Counter-ions that a name gives are not always drawn.

The pKi is −log10 of the Ki, conventionally taken in molar units. Low values mean a high Ki, high ones a low Ki. By pEC50 is commonly meant the negative decadic logarithm of the EC50, by convention in mol/L. Lower therefore signals a high EC50. In assay [1], `C[C@H]1NCCC[C@H]1Nc1cncc(-c2cnn3ccncc23)n1` [Example 252, N-[(2R,3R)-2-methylpiperidin-3-yl]-6-(pyrazolo[1,5-a]pyrazin-3-yl)pyrazin-2-amine, acetate salt] had a negative-log Ki (pKi) of 7.16. This compound gave a pEC50 in assay [2] (setting [3]) of 5.95.

Consider `CC1(COc2ccn3c(-c4cncc(N[C@@H]5CCNC5)n4)cnc3c2)COC1` [Example 154, 6-{7-[(3-methyloxetan-3-yl)methoxy]imidazo[1,2-a]pyridin-3-yl}-N-[(3R)-pyrrolidin-3-yl]pyrazin-2-amine], for which the negative-log Ki (pKi) in assay [1] is 8.41. The same compound gave a pEC50 in assay [2] (setting [3]) of 6.22.

`C[C@@H]1NCCC[C@H]1Nc1cncc(-c2cnc3ccc(Cl)cn23)n1` [Example 225, 6-(6-chloroimidazo[1,2-a]pyridin-3-yl)-N-[(2S,3R)-2-methylpiperidin-3-yl]pyrazin-2-amine] had a pKi in assay [1] of 7.75. Further, in assay [2] (setting [4]), the pEC50 was 7.19.

Consider `Cc1cn2c(-c3cncc(N[C@@H]4CCCN[C@@H]4C)n3)cnc2cn1` [Example 285, 6-(6-methylimidazo[1,2-a]pyrazin-3-yl)-N-[(2R,3R)-2-methylpiperidin-3-yl]pyrazin-2-amine], for which the pKi in assay [1] was 7.67. In assay [2] (setting [3]), this compound had a negative logarithm of the EC50 (pEC50) of 7.04.

In assay [1], `COC[C@@H]1C[C@@H](Nc2cncc(-c3cnc4cc(C#N)ccn34)n2)CN1` [Example 188, 3-(6-{[(3R,5S)-5-(methoxymethyl)pyrrolidin-3-yl]amino}pyrazin-2-yl)imidazo[1,2-a]pyridine-7-carbonitrile] gave a pKi of 7.24. Further, the pEC50 in assay [2] (setting [3]) was 6.18.

`OC[C@@H]1C[C@@H](Nc2cncc(-c3cnc4cc(Cl)ccn34)n2)CN1` [Example 245, [(2S,4R)-4-{[6-(7-chloroimidazo[1,2-a]pyridin-3-yl)pyrazin-2-yl]amino}pyrrolidin-2-yl]methanol] showed a pKi in assay [1] of 8.33. In assay [2] (setting [3]), this compound gave a pEC50 of 7.07.

As to `COc1ccn2c(-c3cncc(N[C@@H]4CCCNC4)n3)cnc2c1` [Example 37, 6-(7-Methoxyimidazo[1,2-a]pyridin-3-yl)-N-[(3R)-piperidin-3-yl]pyrazin-2-amine], the pKi in assay [1] was 8.69. In assay [2] (setting [4]), this compound gave a pEC50 of 7.68.

The compound `COC[C@@H]1C[C@@H](Nc2cncc(-c3cnc4ccc(F)cn34)n2)CN1` [Example 266, 6-(6-fluoroimidazo[1,2-a]pyridin-3-yl)-N-[(3R,5S)-5-(methoxymethyl)pyrrolidin-3-yl]pyrazin-2-amine] gave a pKi in assay [1] of 7.10. Moreover, in assay [2] (setting [3]), the pEC50 was 6.26.

In assay [1], `CO[C@@H]1CCNC[C@H]1Nc1cncc(-c2cnc3ccccn23)n1` [Example 260, 6-(imidazo[1,2-a]pyridin-3-yl)-N-[(3R,4R)-4-methoxypiperidin-3-yl]pyrazin-2-amine (HCl salt)] had a pKi of 6.63. In assay [2] (setting [4]), the pEC50 is 6.26.

In turn, `C[C@@H]1C[C@@H](Nc2cncc(-c3cnc4ccccn34)n2)CN1` [Example 144, 6-imidazo[1,2-a]pyridin-3-yl-N-[(3R,5R)-5-methylpyrrolidin-3-yl]pyrazin-2-amine] had a negative-log Ki (pKi) in assay [1] of 8.50. Also, in assay [2] (setting [3]), the pEC50 was 6.78.

As for `FC1(F)CCNCC1Nc1cncc(-c2cnc3ccc(Cl)cn23)n1` (centres unmarked) [Example 230, 6-(6-chloroimidazo[1,2-a]pyridin-3-yl)-N-(4,4-difluoropiperidin-3-yl)pyrazin-2-amine], the pKi in assay [1] is 8.04. This compound showed a pEC50 in assay [2] (setting [4]) of 7.11.

In assay [1], `COc1ccn2c(-c3cncc(N[C@H]4CN[C@H](COC(C)C)C4)n3)cnc2c1` [Example 242, 6-(7-methoxyimidazo[1,2-a]pyridin-3-yl)-N-{(3R,5S)-5-[(propan-2-yloxy)methyl]pyrrolidin-3-yl}pyrazin-2-amine] had a negative-log Ki (pKi) of 7.55. Besides, the pEC50 in assay [2] (setting [3]) is 6.89.

Take `COc1ccc2c(-c3cncc(N[C@@H]4CCCNC4)n3)cnn2c1` [Example 33, 6-(6-methoxypyrazolo[1,5-a]pyridin-3-yl)-N-[(3R)-piperidin-3-yl]pyrazin-2-amine]: the pKi in assay [1] is 9.00. For the same compound, in assay [2] (setting [3]), the pEC50 was 8.14.
